Test results published in article PMC10464304, “Refined read‐out: The hUHRF1 Tandem‐Tudor domain prefers binding to histone H3 tails containing K4me1 in the context of H3K9me2/3” (Protein Science : A Publication of the Protein Society, 2023).

Molecular target: T1, hUHRF1‐TTD WT (GST‐fused, residues 126–280) (Homo sapiens, UniProt Q96T88)
T1 construct: on previously defined borders (residues 126–280; Rothbart et al., [2012]) was N‐terminally fused to GST; made in house; host or cells: Escherichia coli
T1 sequence (Q96T88 126-280): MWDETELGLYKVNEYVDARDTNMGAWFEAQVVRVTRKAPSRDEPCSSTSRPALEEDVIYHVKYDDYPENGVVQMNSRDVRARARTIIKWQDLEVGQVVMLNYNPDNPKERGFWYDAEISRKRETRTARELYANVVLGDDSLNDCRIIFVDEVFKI
Experiment: Equilibrium peptide binding titration by fluorescence anisotropy (FA), TTD WT
Method: The Tandem Tudor domain of hUHRF1 (UNIPROT Q96T88) on previously defined borders (residues 126–280; Rothbart et al., [2012]) was N‐terminally fused to GST. Mutations were introduced using an updated rolling circle protocol and validated by Sanger sequencing. Proteins were overexpressed in Escherichia coli by induction with 1 mM isopropyl‐β‐D‐thiogalactopyronoside (IPTG) when OD600 reached 0.6–0.8, and the culture was continued overnight at 20°C. The cells were harvested by centrifugation for 30 min, at 4°C and 3781 g. For purification, each pellet was resuspended in 30 mL sonication buffer (500 mM KCl, 20 mM HEPES pH 7.5, 10% v/v glycerol, and 0.2 mM dithiothreitol [DTT]) and sonicated for cell lysis (Q120 Sonicator, Active Motif). After centrifugation for 1 h at 4°C and 45,850 g, the soluble protein was purified using Glutathione Agarose 4B gravitational columns and dialyzed against dialysis buffer (200 mM KCl, 20 mM HEPES, 10% v/v glycerol, pH 7.5, and 0.2 mM DTT). […] Protein concentration was determined spectroscopically by A 280 and purity was verified on SDS‐PAGE.
Equilibrium peptide binding experiments were performed on a Jasco FP‐8300 spectrofluorometer with an automatic polarizer FDP‐837. […] Acquisitions were performed at 23°C with excitation at 493 nm and emission measured at 520 nm, slit width set to 5 nm for both, and multiple accumulations. […]

Substance	preference for the double‐modified peptide (H3K4me1‐K9me2 versus H3K9me2 peptide, FA titrations with GST‐TTD WT (Figure S3a)) [fold]	binding of TTD WT to the peptide (in words) (Supplemental Figure 3B, control data, FA titration)
ARTK(me1)QTARK(me2)STGGKAPRKQ-K(FITC) [H3K4me1‐K9me2, FITC‐labeled histone H3 (1-19) peptide with K4me1 and K9me2]	> 2	
ARTK(me1)QTARKSTGGKAPR-K(FITC) [H3K4me1, FITC‐labeled histone H3 (1-17) peptide with K4me1]		weakly
